pIC50: −log10 of the molar value. Calls of active or inactive are those of the source. No cut-off for these calls is given here.
Key:
[1] = target: T1, Protein cereblon/Nuclear receptor coactivator 3 (Homo sapiens, UniProt Q9Y6Q9+Q96SW2); assay: PROTAC activity at CRBN/SRC-3 in human MCF7 cells assessed as induction of SRC-3 degradation at 1 uM incubated for 24 hrs by immunoblot analysis relative to control; format: cell-based
[2] = target: T1, Protein cereblon/Nuclear receptor coactivator 3; assay: PROTAC activity at CRBN/SRC-3 in human MCF7 cells assessed as induction of ER-alpha degradation at 1 uM incubated for 24 hrs by immunoblot analysis relative to control; format: cell-based
[3] = test system: MCF7; assay: Antiproliferative activity against human MCF7 cells assessed as inhibition of cell growth by CCK8 assay; format: functional, cell-based
[4] = Antiproliferative activity against tamoxifen-resistant human LCC2 cells assessed as inhibition of cell growth by CCK8 assay; format: functional, cell-based
[5] = target: T1, Protein cereblon/Nuclear receptor coactivator 3; assay: PROTAC activity at CRBN/SRC-3 in human MCF7 assessed as induction of ER-alpha degradation at 0.1 to 10 uM incubated for 24 hrs by immunoblot analysis; format: cell-based; details: dose 0.1-10 µM
[6] = target: T1, Protein cereblon/Nuclear receptor coactivator 3; assay: PROTAC activity at CRBN/SRC-3 in human MCF7 cells assessed as induction of SRC-3 degradation at 1 uM incubated for 24 hrs by immunoblot analysis; format: cell-based
[7] = target: T1, Protein cereblon/Nuclear receptor coactivator 3; assay: PROTAC activity at CRBN/SRC-3 in tamoxifen-resistant human LCC2 cells assessed as maximal induction of SRC-3 degradation at 1 uM incubated for 36 hrs by immunoblot analysis; format: cell-based; details: Tamoxifen-resistant LCC2 cell
[8] = test system: LNCaP; assay: Antiproliferative activity against human LNCaP cells assessed as inhibition of cell growth by CCK-8 assay; format: functional, cell-based
[9] = target: Protein cereblon/Eukaryotic peptide chain release factor GTP-binding subunit ERF3A (Homo sapiens) (UniProt Q96SW2+P15170); assay: PROTAC activity at CRBN/GSPT1-alpha in tamoxifen-resistant human LCC2 cells assessed as degradation of GSPT1 at 10 uM measured after 36 hrs by diaPASEF-based quantitative proteomics analysis; details: Tamoxifen-resistant LCC2 cell
Chain of Protein cereblon/Eukaryotic peptide chain release factor GTP-binding subunit ERF3A (Homo sapiens) (P15170 whole entry, looked up): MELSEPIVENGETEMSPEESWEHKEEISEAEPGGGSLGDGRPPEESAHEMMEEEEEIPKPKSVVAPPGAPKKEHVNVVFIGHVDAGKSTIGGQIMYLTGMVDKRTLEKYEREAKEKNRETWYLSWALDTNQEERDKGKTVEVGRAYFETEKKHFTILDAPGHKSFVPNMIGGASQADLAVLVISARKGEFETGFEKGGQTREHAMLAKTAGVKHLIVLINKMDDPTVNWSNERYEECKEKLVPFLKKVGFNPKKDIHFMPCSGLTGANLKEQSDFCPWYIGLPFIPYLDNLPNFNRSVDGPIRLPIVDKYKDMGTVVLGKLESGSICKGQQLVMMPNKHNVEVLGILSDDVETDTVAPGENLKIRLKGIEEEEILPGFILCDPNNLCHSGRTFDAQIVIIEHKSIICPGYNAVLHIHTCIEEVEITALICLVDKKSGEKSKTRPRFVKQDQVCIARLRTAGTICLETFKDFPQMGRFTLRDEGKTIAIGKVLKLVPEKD
Chain of Protein cereblon/Eukaryotic peptide chain release factor GTP-binding subunit ERF3A (Homo sapiens) (Q96SW2 whole entry, looked up): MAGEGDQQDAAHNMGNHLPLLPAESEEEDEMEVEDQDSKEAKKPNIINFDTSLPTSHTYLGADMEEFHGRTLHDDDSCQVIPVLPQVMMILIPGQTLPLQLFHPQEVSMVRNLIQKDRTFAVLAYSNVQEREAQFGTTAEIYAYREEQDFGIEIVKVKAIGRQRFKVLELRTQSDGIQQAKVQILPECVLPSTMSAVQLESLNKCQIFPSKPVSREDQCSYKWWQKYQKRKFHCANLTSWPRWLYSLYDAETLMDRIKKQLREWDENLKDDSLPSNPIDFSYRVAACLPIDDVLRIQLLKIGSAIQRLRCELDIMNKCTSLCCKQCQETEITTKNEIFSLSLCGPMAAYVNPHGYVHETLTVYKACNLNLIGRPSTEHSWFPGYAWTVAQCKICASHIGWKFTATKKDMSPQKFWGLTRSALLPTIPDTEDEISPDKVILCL

[10] = target: Cereblon/Ikaros (Homo sapiens) (UniProt Q96SW2+Q13422); assay: PROTAC activity at CRBN/IKZF1 in tamoxifen-resistant human LCC2 cells assessed as degradation of IKZF1 at 10 uM measured after 36 hrs by diaPASEF-based quantitative proteomics analysis; details: Tamoxifen-resistant LCC2 cell
[11] = target: Protein cereblon/Nuclear receptor coactivator 2 (Homo sapiens) (UniProt Q15596+Q96SW2); assay: PROTAC activity at CRBN/SRC-2 in human MCF7 cells assessed as induction of SRC-2 degradation at 0.01 to 10 uM measured after 36 hrs by immunoblot analysis; format: cell-based; details: dose 0.01-10 µM
Chain of Protein cereblon/Nuclear receptor coactivator 2 (Homo sapiens) (Q15596 whole entry, looked up): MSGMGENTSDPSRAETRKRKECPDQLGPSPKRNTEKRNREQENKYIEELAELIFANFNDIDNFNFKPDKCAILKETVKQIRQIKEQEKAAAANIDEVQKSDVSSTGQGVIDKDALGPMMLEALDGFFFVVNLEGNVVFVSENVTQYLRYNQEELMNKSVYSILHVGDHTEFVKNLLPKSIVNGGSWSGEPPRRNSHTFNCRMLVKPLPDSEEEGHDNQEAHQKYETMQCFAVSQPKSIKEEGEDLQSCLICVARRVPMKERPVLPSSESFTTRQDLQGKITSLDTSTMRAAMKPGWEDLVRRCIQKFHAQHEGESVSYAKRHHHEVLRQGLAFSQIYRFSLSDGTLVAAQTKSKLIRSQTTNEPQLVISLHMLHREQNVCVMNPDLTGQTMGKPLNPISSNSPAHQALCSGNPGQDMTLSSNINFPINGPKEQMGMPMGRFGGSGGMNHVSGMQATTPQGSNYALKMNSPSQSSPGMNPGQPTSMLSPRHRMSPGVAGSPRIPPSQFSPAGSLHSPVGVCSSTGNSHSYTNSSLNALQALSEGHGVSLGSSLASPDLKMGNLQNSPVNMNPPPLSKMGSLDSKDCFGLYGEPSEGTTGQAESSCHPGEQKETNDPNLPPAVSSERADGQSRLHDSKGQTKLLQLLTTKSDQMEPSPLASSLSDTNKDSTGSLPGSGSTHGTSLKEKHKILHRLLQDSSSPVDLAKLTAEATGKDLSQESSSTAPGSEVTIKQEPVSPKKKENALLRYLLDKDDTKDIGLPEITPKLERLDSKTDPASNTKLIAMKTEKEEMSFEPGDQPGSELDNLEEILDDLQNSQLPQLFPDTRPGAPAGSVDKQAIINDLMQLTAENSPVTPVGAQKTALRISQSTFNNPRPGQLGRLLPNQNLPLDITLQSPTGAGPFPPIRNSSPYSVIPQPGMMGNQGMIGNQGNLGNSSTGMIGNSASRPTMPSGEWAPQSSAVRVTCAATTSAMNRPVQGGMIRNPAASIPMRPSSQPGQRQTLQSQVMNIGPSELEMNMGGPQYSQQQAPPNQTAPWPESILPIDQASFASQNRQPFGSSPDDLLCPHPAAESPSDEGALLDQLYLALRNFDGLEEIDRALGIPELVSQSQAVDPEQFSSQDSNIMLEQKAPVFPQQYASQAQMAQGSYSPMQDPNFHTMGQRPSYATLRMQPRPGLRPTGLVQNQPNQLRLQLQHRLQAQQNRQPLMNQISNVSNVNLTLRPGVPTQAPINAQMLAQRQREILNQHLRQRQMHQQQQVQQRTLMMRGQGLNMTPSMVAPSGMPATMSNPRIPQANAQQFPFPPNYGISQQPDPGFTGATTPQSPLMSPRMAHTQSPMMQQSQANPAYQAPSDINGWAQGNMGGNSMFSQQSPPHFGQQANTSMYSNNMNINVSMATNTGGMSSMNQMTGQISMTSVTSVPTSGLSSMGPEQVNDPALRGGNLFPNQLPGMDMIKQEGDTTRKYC
Chain of Protein cereblon/Nuclear receptor coactivator 2 (Homo sapiens) (Q96SW2 whole entry, looked up): as the sequence (Q96SW2 whole entry, looked up) above

[12] = target: T1, Protein cereblon/Nuclear receptor coactivator 3; assay: PROTAC activity at CRBN/SRC-3 in human MCF7 cells assessed as induction of SRC-3 degradation at 1 uM preincubated with proteasome inhibitor, bortezomib for 2 hrs followed by incubation with compound and measured after 36 hrs by immunoblot analysis; format: cell-based
[13] = target: T1, Protein cereblon/Nuclear receptor coactivator 3; assay: PROTAC activity at CRBN/SRC-3 in human MCF7 cells assessed as induction of SRC-3 degradation at 1 uM preincubated with SI-2 for 2 hrs followed by incubation with compound and measured after 36 hrs by immunoblot analysis; format: cell-based
[14] = target: T1, Protein cereblon/Nuclear receptor coactivator 3; assay: PROTAC activity at CRBN/SRC-3 in tamoxifen-resistant human LCC2 cells assessed as induction of SRC-3 degradation at 1 uM preincubated with SI-2 for 2 hrs followed by incubation with compound and measured after 36 hrs by immunoblot analysis; format: cell-based; details: Tamoxifen-resistant LCC2 cell
[15] = target: T1, Protein cereblon/Nuclear receptor coactivator 3; assay: Binding affinity to CRBN/SRC-3 in human MCF7 cells assessed as CRBN/compound/SRC-3 ternary complex formation by measuring increase in yellow fluorescence intensity at 10 uM incubated for 6 hrs by immunofluorescence analysis; format: cell-based
[16] = target: T1, Protein cereblon/Nuclear receptor coactivator 3; assay: PROTAC activity at CRBN/SRC-3 in tamoxifen-resistant human LCC2 cells assessed as downregulation of ER-alpha mRNA expression at 0.01 to 10 uM incubated for 36 hrs by qRT-PCR analysis; format: cell-based; details: Tamoxifen-resistant LCC2 cell, dose 0.01-10 µM
[17] = Induction of apoptosis in tamoxifen-resistant human LCC2 cells assessed as viable cells at 10 uM incubated for 48 hrs by AnnexinV-FITC/PI staining based flow cytometry (reference value: 88.09%); format: functional; details: Tamoxifen-resistant LCC2 cell, read-out: Activity
[18] = Induction of apoptosis in tamoxifen-resistant human LCC2 cells assessed as late apoptotic cells at 10 uM incubated for 48 hrs by AnnexinV-FITC/PI staining based flow cytometry (reference value: 4.83%); format: functional, Tamoxifen-resistant LCC2 cell
[19] = Induction of apoptosis in tamoxifen-resistant human LCC2 cells assessed as early apoptotic cells at 5 uM incubated for 48 hrs by AnnexinV-FITC/PI staining based flow cytometry (reference value: 5.92%); format: functional, Tamoxifen-resistant LCC2 cell
[20] = Induction of apoptosis in tamoxifen-resistant human LCC2 cells assessed as necrotic cells at 5 uM incubated for 48 hrs by AnnexinV-FITC/PI staining based flow cytometry (reference value: 1.16%); format: functional, Tamoxifen-resistant LCC2 cell
[21] = Induction of cell cycle arrest in tamoxifen-resistant human LCC2 cells assessed as accumulation of cells at S phase at 10 uM incubated for 48 hrs by propidium iodide staining based flow cytometry (reference value: 9.72%); format: functional
[22] = Half life in human liver microsomes in presence of NADPH by LC-MS/MS analysis; format: ADME, Microsome
[23] = Hepatic clearance in human liver microsomes in presence of NADPH by LC-MS/MS analysis; format: ADME, Microsome
[24] = target: Cytochrome P450 2C9 (Homo sapiens, UniProt P11712); assay: Inhibition of CYP2C9 (unknown origin) using diclofenac as substrate; format: ADME
Chain of Cytochrome P450 2C9 (P11712 whole entry): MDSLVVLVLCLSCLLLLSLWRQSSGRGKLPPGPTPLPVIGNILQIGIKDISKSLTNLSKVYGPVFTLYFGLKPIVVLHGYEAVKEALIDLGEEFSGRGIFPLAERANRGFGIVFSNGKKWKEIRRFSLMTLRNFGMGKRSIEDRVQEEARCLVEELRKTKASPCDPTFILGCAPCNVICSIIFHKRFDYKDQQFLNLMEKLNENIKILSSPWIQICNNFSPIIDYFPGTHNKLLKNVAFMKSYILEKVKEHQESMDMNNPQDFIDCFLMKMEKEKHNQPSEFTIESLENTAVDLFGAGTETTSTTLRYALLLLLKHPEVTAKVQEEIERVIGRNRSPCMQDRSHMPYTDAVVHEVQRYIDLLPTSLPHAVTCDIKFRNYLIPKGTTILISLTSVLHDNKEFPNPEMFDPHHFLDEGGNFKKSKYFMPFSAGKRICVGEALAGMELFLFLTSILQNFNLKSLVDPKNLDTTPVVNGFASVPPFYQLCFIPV

[25] = Half life in Balb/c mouse at 4 mg/kg, ip by LC-MS/MS analysis; format: ADME, organism-based; details: in vivo
[26] = Tmax in Balb/c mouse at 4 mg/kg, ip by LC-MS/MS analysis; format: ADME, organism-based; details: in vivo
[27] = AUC (0 to t) in Balb/c mouse at 4 mg/kg, ip by LC-MS/MS analysis; format: ADME, organism-based; details: in vivo
[28] = AUC (0 to t) in Balb/c mouse at 20 mg/kg, po by LC-MS/MS analysis; format: ADME, organism-based; details: in vivo
[29] = AUC (0 to infinity) in Balb/c mouse at 20 mg/kg, po by LC-MS/MS analysis; format: ADME, organism-based; details: in vivo
[30] = Oral bioavailability in Balb/c mouse at 20 mg/kg by LC-MS/MS analysis; format: ADME, organism-based; details: in vivo
[31] = Toxicity against Balb/c mouse xenografted with tamoxifen-resistant human LCC2 cells assessed as effect on heart pathological changes at 3 to 5 uM/Kg, ip administered once every 2 days for 23 days and measured on day 25 by Hematoxylin-Eosin based […] staining analysis; format: organism-based; details: in vivo, 600 h, dose 3-5 µM/Kg, time 25 day
[32] = test system: Tamoxifen-resistant LCC2 cell; assay: Antitumor activity against tamoxifen-resistant human LCC2 cells xenografted in Balb/c mouse assessed as inhibition of tumor growth at 3 uM/Kg, ip administered once every 2 days for 23 days; format: functional, organism-based; details: time 23.0 day
[33] = test system: Tamoxifen-resistant LCC2 cell; assay: Antitumor activity against tamoxifen-resistant human LCC2 cells xenografted in Balb/c mouse assessed as reduction in Ki67 expression in tumor tissues at 5 uM/Kg, ip administered once every 2 days for 23 days and measured on day 25 by Hematoxylin-Eosin staining based immunohistochemical staining analysis; format: functional, organism-based; details: time 25.0 day

T1 sequence (Q96SW2 whole entry partner): as the sequence (Q96SW2 whole entry, looked up) above
T1 sequence (Q9Y6Q9 2-1424 limits assumed): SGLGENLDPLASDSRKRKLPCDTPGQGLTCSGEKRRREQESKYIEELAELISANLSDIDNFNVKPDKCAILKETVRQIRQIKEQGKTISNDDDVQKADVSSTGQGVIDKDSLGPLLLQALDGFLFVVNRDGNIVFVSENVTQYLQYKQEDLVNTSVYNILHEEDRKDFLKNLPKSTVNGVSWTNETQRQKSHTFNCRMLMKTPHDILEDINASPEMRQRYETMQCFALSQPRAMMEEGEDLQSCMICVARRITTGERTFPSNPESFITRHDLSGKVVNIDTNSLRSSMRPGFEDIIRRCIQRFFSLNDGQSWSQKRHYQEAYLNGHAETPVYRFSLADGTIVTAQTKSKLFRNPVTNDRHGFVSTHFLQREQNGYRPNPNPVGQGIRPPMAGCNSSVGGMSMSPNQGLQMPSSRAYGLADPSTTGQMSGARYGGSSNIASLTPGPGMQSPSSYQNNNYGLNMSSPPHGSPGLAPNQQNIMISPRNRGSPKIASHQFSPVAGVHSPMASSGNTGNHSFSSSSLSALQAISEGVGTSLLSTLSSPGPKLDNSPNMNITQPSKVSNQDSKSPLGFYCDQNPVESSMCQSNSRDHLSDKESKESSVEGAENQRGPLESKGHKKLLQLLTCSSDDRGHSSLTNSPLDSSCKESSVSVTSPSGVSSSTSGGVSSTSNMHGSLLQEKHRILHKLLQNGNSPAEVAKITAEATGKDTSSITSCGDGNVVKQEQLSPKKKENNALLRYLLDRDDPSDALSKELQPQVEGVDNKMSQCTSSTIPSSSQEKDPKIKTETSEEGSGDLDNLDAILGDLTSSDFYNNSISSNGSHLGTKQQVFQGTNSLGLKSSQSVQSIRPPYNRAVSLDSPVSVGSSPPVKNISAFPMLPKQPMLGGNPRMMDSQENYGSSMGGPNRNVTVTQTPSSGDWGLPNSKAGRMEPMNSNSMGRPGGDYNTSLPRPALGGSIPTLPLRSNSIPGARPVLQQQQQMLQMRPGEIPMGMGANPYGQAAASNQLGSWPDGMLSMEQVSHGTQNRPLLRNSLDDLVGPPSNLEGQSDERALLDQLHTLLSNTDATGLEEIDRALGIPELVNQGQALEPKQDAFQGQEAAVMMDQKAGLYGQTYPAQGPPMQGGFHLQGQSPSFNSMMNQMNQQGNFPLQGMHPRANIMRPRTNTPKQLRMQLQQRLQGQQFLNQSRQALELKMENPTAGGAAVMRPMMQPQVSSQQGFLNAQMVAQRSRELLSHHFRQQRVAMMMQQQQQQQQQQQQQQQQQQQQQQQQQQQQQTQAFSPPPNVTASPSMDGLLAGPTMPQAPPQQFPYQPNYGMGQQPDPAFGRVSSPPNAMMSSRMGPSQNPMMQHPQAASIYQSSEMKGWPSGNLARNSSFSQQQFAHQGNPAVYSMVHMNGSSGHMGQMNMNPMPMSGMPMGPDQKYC

C/C(=N\Nc1nc2ccccc2n1C1CN(C2CCN(c3cccc4c3C(=O)N(C3CCC(=O)NC3=O)C4=O)CC2)C1)c1ccccn1 (stereo not drawn)
Activity [1]: 71% | Activity [2]: 85% | pIC50 [3]: 8.00 | pIC50 [4]: 6.46 | Activity [5]: Active | Activity [6]: Active | Activity [7]: Active | pIC50 [8]: 5.84 | Activity [9]: inactive | Activity [10]: inactive | Activity [11]: Active; Minimal Activity Against Src-2 Compared To Src-3 Observed | Activity [12]: inactive | Activity [13]: Active | Activity [14]: Active | Activity [15]: Active | Activity [16]: Active | viability at 10 µM [17]: 48.7% | Activity [18]: 20.48% | Activity [19]: 10.14% | Activity [20]: 10.46% | Activity [21]: 12.41% | half-life [22]: 8.46 min | CLhep predicted [23]: 18.7 mL/min/kg | pIC50 [24]: < 5.00 | half-life [25]: 208 min | Tmax [26]: 19.8 min | AUC(0-t) [27]: 49.1 ng·h/mL | AUC(0-t) [28]: 47.1 ng·h/mL | AUC(0-inf) [29]: 58.4 ng·h/mL | bioavailability [30]: 1% | Activity [31]: Non-toxic | Activity [32]: Active | Activity [33]: Active
